Several values for one entry are separate records, joined by “and”; a condition that tells them apart may be missing. Equal values may be shown once.

Assay [1] relates to Ripk1 mRNA. Kind of assay: RT-PCR of Ripk1 mRNA in intestinal epithelial cells of experimental colitis mice. The format is in vivo, mouse. The following applies: Figure 7i, group TSZ+UDPG+Nec-1s. The procedure:
Colon tissues derived from the euthanized by carbon dioxide inhalation mice were opened longitudinally and washed in pre-cooling PBS for three times. Then, the tissues were cut into 3 mm^2 pieces and incubated with 5 mM EDTA solution in PBS on a constant temperature shaker at 200 rpm for 25 min at 37°C. Then, let it stand at room temperature for 30 seconds and collected the supernatant. Next, repeated the above process once. Supernatants from the above step were combined and centrifuged at 500 g for 8 min. Abandon the supernatants and obtain IECs.
(§1) Total RNA was extracted from cells or colonic tissues using Trizol (Thermo) under the manufacturer’s instructions. First strand cDNA was synthesized using the PrimeScript RT Reagent Kit (480, Abm). SYBR Green Master Mix reagents (Q331-02, Vazyme) and primer mixtures (Table S1) were used for the real-time PCR. […] The procedure was as described in the kit provided by the manufacturer. Briefly, isolated IECs were fixed by 1% formaldehyde, and fragmented by sonication. CREB was then used for immunoprecipitation. After washing and reverse-crosslinking, the precipitated DNA was amplified by primers and quantified by the qPCR. Primer sequences can be found in Supplementary Table 1.

The test system of the next assay is HT-29 cells. In words: TSZ-induced necroptosis in HT-29 cells (CCK8 viability, PI/Hoechst, H&E staining). It counts as cell-based, human. The procedure: (§2) Necroptosis was induced by pretreatment with TNF‐α (20 ng·mL^−1) plus z‐VAD‐fmk (20 μM) and Smac mimetic (BV6, 2 μM) for 8 h, then stained cells with hematoxylin/eosin. For PI/Hoechst staining, cells were stained with PI and Hoechst for 20 min, then photographed with a fluorescence microscope and at least 300 cells were counted. The ratio of PI positive cells (%) = (PI positive cells) / (Hoechst positive cells) × 100%. For cell viability assay, CCK8 was added to the well and incubated for 1 − 2 h and then OD450 was measured using a multi-mode microplate reader (Cytation5, BioTek).

The subject of a further assay is HCT-116 cells. In words: TSZ-induced necroptosis in HCT-116 cells (PI/Hoechst staining). It counts as cell-based, human. The procedure: as §2
Another assay deals with intestinal organoids. In words: TSZ-induced necroptosis in intestinal organoids (PI staining). Conditions: P2Y14Rfl/fl organoids, UDPG+TSZ. It counts as cell-based, mouse. The procedure:
Crypts were released from the murine small intestine by incubation for 30 min at 4°C in PBS containing 2 mM EDTA. Isolated crypts were counted and pelleted. […] Organoid media were changed every 3 days. […] Dead cell imaging in live organoids was performed on the fluorescence microscope (BX53, Olympus Optical), and analyzed by image j.

For assay [2], the system named is MLKL phosphorylation. In words: Immunoblotting of p-MLKL/MLKL in HT-29 cells. The format is cell-based, human. The following applies: P2Y14R-OE cells + TSZ, replicates, supplement Figure 2e. The procedure:
(§3) Tissues and cells were lysed using RIPA lysis buffer (Beyotime Biotechnology) containing protease and phosphatase inhibitor, homogenated, and centrifuged. The protein concentration was determined by BCA protein assay (Beyotime Biotechnology). Equal concentrations of proteins were separated in a 10% SDS-PAGE and transferred to PVDF membrane. […] Densitometry was quantified using ImageJ software.

For assay [3], the system named is MLKL phosphorylation. Kind of assay: Immunoblotting of p-MLKL/MLKL in HCT-116 cells. It counts as cell-based, human. Conditions: P2Y14R-OE cells + TSZ, replicates, supplement Figure 2g. The procedure:
as §3

In assay [4] the test system is PKA and CREB phosphorylation. Kind of assay: Immunoblotting of p-PKA and p-CREB in HT-29 cells. The format is cell-based, human. As to the method:
as §3

Assay [5] relates to PKA and CREB phosphorylation. Kind of assay: Immunoblotting of p-PKA and p-CREB in HCT-116 cells. It counts as cell-based, human. As to the method: as §3
In assay [6] the test system is Ripk1 mRNA. Kind of assay: RT-PCR of Ripk1 mRNA in HT-29 cells. The format is cell-based, human.
From the text: as §1

The subject of assay [7] is Ripk1 mRNA. In words: RT-PCR of Ripk1 mRNA in HCT-116 cells. The format is cell-based, human.
From the text: as §1

The test system of assay [8] is CREB binding to Ripk1 promoter. In words: ChIP-qPCR with anti-CREB on Ripk1 gene promoter in HT-29 cells. It counts as cell-based, human.
From the text: as §1

For assay [9], the system named is CREB binding to Ripk1 promoter. In words: ChIP-qPCR with anti-CREB on Ripk1 gene promoter in HCT-116 cells. The format is cell-based, human.
From the text: as §1

Setting [10] is: HT-29 cells, UDPG+TSZ, pre-treatment.
Setting [11] is: HCT-116 cells, UDPG+TSZ, pre-treatment.

With `CN1C(=O)NC(Cc2c[nH]c3c(Cl)cccc23)C1=O` (centres unmarked) [Nec-1s], the “Expression of Ripk1 in IEC, 2^△△CT” value with Ripk1 mRNA [1] was 1.11 and 1.102 and 0.9517 and 0.9698 and 1.16. The “UDP-glucose derived damage on TSZ-stimulated necroptosis” value in the assay on HT-29 cells (HT-29 cells, UDPG+TSZ) was “remarkably attenuated the UDP-glucose derived damage on TSZ-stimulated necroptosis”; in the assay on HCT-116 cells (HCT-116 cells, UDPG+TSZ), “remarkably attenuated the UDP-glucose derived damage on TSZ-stimulated necroptosis”. Besides, in the assay with HT-29 cells (P2Y14R-OE cells + TSZ, replicates), the Cell viability is 99.7919 and 100.274 and 99.3783 and 100.966 and 100.911 and 101.005. Also, the “PI positive (%)” value in the assay on HT-29 cells (P2Y14R-OE cells + TSZ, replicates, supplement Figure 2c) was 6.21% and 5.544% and 2.585%; in the assay with HCT-116 cells (P2Y14R-OE cells + TSZ, replicates, supplement Figure 2f) it was 1.2% and 1.6% and 3.0%. For the same molecule, the TSZ-stimulated necroptosis entry with HT-29 cells (P2Y14R-overexpression HT-29 cells, 1h pre-treatment, TSZ 8 h) is recorded as “alleviated TSZ stimulated IECs necroptosis”; with HCT-116 cells (P2Y14R-overexpression HCT-116 cells, pre-treated) it was “alleviated this phenomenon”. In addition, the “UDPG-increased TSZ necroptosis in organoids” value in the assay on intestinal organoids is on record as “remarkably attenuated this damage”. The P-MLKL/MLKL with MLKL phosphorylation [2] is 2.79 and 2.6518 and 3.608 and 1.739 and 2.51; in the assay on MLKL phosphorylation [3], 2.175 and 2.507 and 2.289 and 2.573 and 2.48. Besides, the “Phosphorylation level of PKA/CREB pathway” value in assay [4] (UDPG+TSZ) and in [5] (UDPG+TSZ) was “did not affect the phosphorylation level of PKA/CREB pathway” throughout. Moreover, in assay [4] (added to UDPG+TSZ, Figure 5k), the P-CREB/CREB was 0.2673 and 0.2178 and 0.2551 and 0.2611 and 0.3759. Also, in assay [5] (Figure 5n, second block, added to UDPG+TSZ), the P-PKA/PKA is 0.2244 and 0.2706 and 0.2071 and 0.4048 and 0.2633. Also, the “Ripk1 transcript (mRNA)” value with Ripk1 mRNA [6] (setting [10]) and in the assay on Ripk1 mRNA [7] (setting [11]) was “showed no effect” each time. The “Expression of Ripk1 in HT-29 cell, 2^△△CT” value in the assay on Ripk1 mRNA [6] (added to TSZ+UDPG) was 3.657 and 4.786 and 3.641 and 3.399 and 4.214 and 3.302. Besides, the “Expression of Ripk1 in HCT-116 cell, 2^△△CT” value with Ripk1 mRNA [7] (added to TSZ+UDPG) was 2.77 and 2.8504 and 2.771 and 2.541 and 2.7034. Further, the “CREB binding Ripk1 promoter” value in [8] (Figure 5m, added to TSZ+UDPG) was 4.90% and 6.57% and 1.83%; in assay [9] (Figure 5p, added to TSZ+UDPG) it was 42.22% and 33.74% and 27.53%. In addition, the “Decrease of binding between CREB and Ripk1 promoter (ChIP)” value in assay [8] (setting [10]) and in [9] (setting [11]) was “did not affect this process” each time.
